From patent US12162888B2, “Carboxamides as ubiquitin-specific protease inhibitors” (Valo Early Discovery, Inc., priority 2018, dated 2024) come the findings set out here.

Molecules are shown by their SMILES. Where two headings read alike, the source gives them in different places.

This assay has as its target T1, USP25 (USP25-His6, Boston Biochem E-546) (Homo sapiens, UniProt Q9UHP3).
T1 construct: His6 (C); purchased Boston Biochem E-546
T1 sequence (Q9UHP3 1-1055): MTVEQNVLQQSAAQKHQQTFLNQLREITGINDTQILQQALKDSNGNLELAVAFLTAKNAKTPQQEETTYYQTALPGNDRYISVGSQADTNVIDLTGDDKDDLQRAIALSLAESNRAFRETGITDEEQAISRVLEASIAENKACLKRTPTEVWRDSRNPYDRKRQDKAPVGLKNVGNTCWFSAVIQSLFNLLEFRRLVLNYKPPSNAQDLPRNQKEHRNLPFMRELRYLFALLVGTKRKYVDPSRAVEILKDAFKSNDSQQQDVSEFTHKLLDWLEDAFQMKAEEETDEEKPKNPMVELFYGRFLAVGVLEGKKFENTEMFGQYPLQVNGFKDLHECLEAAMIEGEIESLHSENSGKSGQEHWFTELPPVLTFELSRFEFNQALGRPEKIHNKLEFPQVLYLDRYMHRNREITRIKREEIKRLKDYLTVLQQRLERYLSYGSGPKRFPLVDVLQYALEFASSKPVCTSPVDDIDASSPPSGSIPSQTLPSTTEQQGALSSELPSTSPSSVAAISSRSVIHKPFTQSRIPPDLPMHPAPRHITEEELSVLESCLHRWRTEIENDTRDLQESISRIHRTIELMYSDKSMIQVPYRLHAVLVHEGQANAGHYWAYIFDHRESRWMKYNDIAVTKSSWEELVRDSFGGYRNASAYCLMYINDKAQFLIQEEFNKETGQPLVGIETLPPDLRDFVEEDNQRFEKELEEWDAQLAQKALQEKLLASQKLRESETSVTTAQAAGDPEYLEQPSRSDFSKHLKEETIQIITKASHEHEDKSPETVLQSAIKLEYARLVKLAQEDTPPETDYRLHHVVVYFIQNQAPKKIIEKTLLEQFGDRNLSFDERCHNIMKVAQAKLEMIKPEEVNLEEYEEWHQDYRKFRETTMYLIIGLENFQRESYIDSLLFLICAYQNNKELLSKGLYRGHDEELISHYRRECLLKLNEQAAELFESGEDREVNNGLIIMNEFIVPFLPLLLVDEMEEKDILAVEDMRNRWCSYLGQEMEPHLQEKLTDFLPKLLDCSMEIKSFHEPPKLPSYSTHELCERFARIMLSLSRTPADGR
Put plainly: Ubiquitin-Rhodamine 110 Assay for USP25 Activity, Example A-3. It counts as biochemical. The settings on record: Ubiquitin-Rhodamine 110 assay, Example A-3. An outline of the steps: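 USP25-His6 ([…] final as stated) preincubated 30 min with compound (10-point, 25 μM to 1.3 nM), then Ub-Rh110 at 25 nM (<<Km) added in pH 8.0 Tris buffer with BME, BGG and Triton X-100. Reaction stopped after 45 min at room temperature with 10 mM citric acid; fluorescence read at 485/535 nm.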

Setting [1] is: biochemical IC50 range, read-out: USP25 A-3.

As for `[2H]C1([2H])c2c(F)cc(N3CCNCC3)cc2OC[C@@H]1NC(=O)c1sc2nc(C)ccc2c1N` (single isomer, unassigned) [Example 33-1], the IC50 (read-out: USP25 A-3 IC50 range) lay within 200 to 2000 nM.

On to `Cc1ccc2c(N)c(C(=O)N[C@H]3COc4cc(N5C[C@H](CF)[C@H](N)C5)ccc4C3)sc2n1` (single isomer, unassigned) [Example 424], for which the IC50 (read-out: USP25 A-3 IC50 range) lay in the range of 200 to 2000 nM.

Consider `CN[C@@H]1CN(c2ccc3c(c2)OC[C@H](NC(=O)c2sc4nc(C)ccc4c2N)C3)C[C@H]1CF` [Example 663, 3-amino-N-[(3R)-7-[(3R,4S)-3-(fluoromethyl)-4-(methylamino)pyrrolidin-1-yl]-3,4-dihydro-2H-1-benzopyran-3-yl]-6-methylthieno[2,3-b]pyridine-2-carboxamide], for which the IC50 under setting [1] lay in the range of 50 to 200 nM.

As for `CN[C@H]1CCN(c2ccc3c(c2)CC[C@@H](NC(=O)c2sc4nc(C)cnc4c2N)C3)C1` (single isomer, unassigned) [Example 11-26], under “read-out: USP25 A-3 IC50 range”, the IC50 is > 2000 nM.

As to `Cc1ccc2c(N)c(C(=O)N[C@H]3COc4cc(N5C[C@@H](N)[C@@](C)(CF)C5)ccc4C3)sc2n1` [Example 660, 3-amino-N-[(3R)-7-[(3S,4S)-4-amino-3-(fluoromethyl)-3-methylpyrrolidin-1-yl]-3,4-dihydro-2H-1-benzopyran-3-yl]-6-methylthieno[2,3-b]pyridine-2-carboxamide], the IC50 under setting [1] is 1 to 50 nM.

As to `CN[C@H]1CN(c2ccc3c(n2)CC[C@H](NC(=O)c2sc4nc(C)ccc4c2N)C3)C[C@H]1CF` [Example 441, 3-amino-N-[(6S)-2-[(3R,4R)-3-(fluoromethyl)-4-(methylamino)pyrrolidin-1-yl]-5,6,7,8-tetrahydroquinolin-6-yl]-6-methylthieno[2,3-b]pyridine-2-carboxamide], for the setting “read-out: USP25 A-3 IC50 range”, the IC50 was > 2000 nM.

For `CN[C@@H]1CCN(c2ccc3c(c2)CC[C@@H](NC(=O)c2sc4nc(C)cnc4c2N)C3)C1` (single isomer, unassigned) [Example 11-28], the IC50 (read-out: USP25 A-3 IC50 range) was > 2000 nM.

With `O=C(N[C@H]1COc2cc(N3CCNCC3)ccc2C1)c1ccc(NCc2cccc3cn[nH]c23)nc1` [Example 698, 6-{[(1H-indazol-7-yl)methyl]amino}-N-[(3R)-7-(piperazin-1-yl)-3,4-dihydro-2H-1-benzopyran-3-yl]pyridine-3-carboxamide], under setting [1], the IC50 lay within 200 to 2000 nM.

In the case of `N#Cc1c(N2CC3CCC(C2)N3)cc(F)c2c1OC[C@H](NC(=O)c1cnc3c(c1)[C@@H]1CC1CN3)C2` (stereo partly drawn) [Example 228, (6aS,7aR)-N-[(3R)-8-cyano-7-(3,8-diazabicyclo[3.2.1]octan-3-yl}-5-fluoro-3,4-dihydro-2H-1-benzopyran-3-yl]-5H,6H,6aH,7H,7aH-cyclopropa[c]1,8-naphthyridine-2-carboxamide], the IC50 (IC50 ranges, read-out: USP25 A-3 IC50) fell in the range of 200 to 2000 nM.

For the compound `Cc1ccc2c(N)c(C(=O)N[C@H]3COc4cc(N5C[C@@H]6CCNC[C@@H]65)cc(F)c4C3)sc2n1` [Example 665, 3-amino-N-[(3R)-7-[(1R,6S)-3,8-diazabicyclo[4.2.0]octan-8-yl]-5-fluoro-3,4-dihydro-2H-1-benzopyran-3-yl]-6-methylthieno[2,3-b]pyridine-2-carboxamide], the IC50 under setting [1] fell in the range of 50 to 200 nM.

With `Cc1nc2sc(C(=O)N[C@H]3CCc4c(C#N)c(N5CC6CCC(C5)N6)cc(F)c4C3)c(N)c2s1` (single isomer, unassigned) [Example 14-21], the IC50 (read-out: USP25 A-3 IC50 range) was in the range of 50 to 200 nM.

As to `Cc1ccc2c(N)c(C(=O)N[C@H]3COc4cc(N5CCNCC5)ccc4[C@@H]3C)sc2n1` (single isomer, unassigned) [Example 11-16], the IC50 (read-out: USP25 A-3 IC50 range) was > 2000 nM.

As to `Cc1cnc2c(N)c(C(=O)N[C@H]3CCc4c(C#N)c(N5CC6CCC(C5)N6)cc(F)c4C3)sc2n1` (single isomer, unassigned) [Example 14-19], where the note is “read-out: USP25 A-3 IC50 range”, the IC50 is 50 to 200 nM.

`Cc1ccc2c(N)c(C(=O)N[C@H]3CCc4c(C#N)c(N5CC6CNCC(C5)O6)cc(F)c4C3)sc2n1` (single isomer, unassigned) [Example 14-15]: the IC50 (read-out: USP25 A-3 IC50 range) lay within 1 to 50 nM.

As for `Cc1cnc2c(N)c(C(=O)N[C@H]3CCc4c(C#N)c(N5CCNCC5)cc(F)c4C3)sc2n1` (single isomer, unassigned) [Example 14-12], under “read-out: USP25 A-3 IC50 range”, the IC50 was > 2000 nM.
